row,Structure (SMILES),logP
1,Nc1ccc(Cl)cc1[N+](=O)[O-],2.72
2,O=[N+]([O-])c1ccc2ccccc2c1,3.24
3,Nc1ccc(Oc2ccccc2)cc1,2.96
4,O=[N+]([O-])c1cccc2c([N+](=O)[O-])cccc12,2.58
5,Nc1ccc2ccc3cccc4ccc1c2c34,4.31
6,O=[N+]([O-])c1ccc2c3c(cccc13)CC2,3.85
7,Cc1ccc(N)cc1N,0.14
8,COc1ccc(N)c(C)c1,1.23
9,Nc1ccc2c(c1)Cc1ccccc1-2,3.14
10,Cc1ccc(O)c(N)c1,1.16
11,O=C1Nc2ccc([N+](=O)[O-])cc2C1=O,0.47
12,Nc1ccc2c3c(cccc13)-c1ccccc1-2,4.2
13,COc1cc(-c2ccc(N)c(OC)c2)ccc1N,1.81
14,Cc1ccc(C)c(N)c1,1.83
15,O=[N+]([O-])c1cccc2cccc([N+](=O)[O-])c12,2.52
16,Nc1cc(Cl)ccc1O,1.81
17,Nc1cccc2cc3ccccc3cc12,3.69
18,Nc1cccc2c1Cc1ccccc1-2,3.18
19,Nc1ccccc1-c1ccccc1N,1.34
20,Nc1cc2ccccc2c2ccccc12,3.56
21,Cc1ccc(N)c(N)c1,0.66
22,Cc1ccc2cccc([N+](=O)[O-])c2n1,1.99
23,O=[N+]([O-])c1cc([N+](=O)[O-])c2ccccc2c1,2.83
24,Nc1cccc(C(F)(F)F)c1,2.29
